# In US20030143282A1, “Adenosine A3 receptor agonist” (priority 2002, published 2003):
# Assays:
# [1] = Myeloprotective effect in mice treated with cyclophosphamide; assay type: in vivo; details: adenosine administered orally or intraperitoneally, after cyclophosphamide
# Protocol: The myeloprotective effect of the various preparations were examined by injecting mice intraperitoneally with 50 mg/kg body weight of cyclophosphamide. Each group contained 10 mice and experiments were repeated at least 4 times. Adenosine, MCM (4 activity units) or MCM+ADA (4 activity units) were each orally administered 48 h and 72 h following the chemotherapy. After 120 h blood samples were withdrawn. The number of leukocytes and percent of neutrophils were evaluated.
# B16-F10 melanoma cells = assay: Melanoma lung metastatic foci growth in mice inoculated with B16-F10 cells; assay type: in vivo, C57BL/6J mice; details: adenosine 268 μg/kg body weight, administered orally or intraperitoneally
# Protocol: The B-16-F10 murine melanoma cell line was used in the in vitro and in vivo experiments. Cells were maintained in RPMI medium containing 10% FBS, penicillin and streptomycin. They were transferred twice weekly to a freshly prepared medium. To examine the effect of the different preparations on tumor cell growth, B16-F10 (2.5×10^5) melanoma cells were intravenously inoculated to C57BL/6J mice. Each group contained 20 mice and experiments were repeated at least 4 times. Mice were treated orally according to the following protocol starting one day after tumor inoculation: 1. Adenosine—268 μg/kg body weight 2. MCM 4AU twice daily. 3. MCM+ADA, 4AU twice daily. 4. Vehicle—twice daily. An additional group of mice was treated daily intraperitoneally with adenosine (268 μg/kg body weight). Mice were sacrificed after fifteen days, lungs removed and black metastatic foci were counted using a Dissecting Microscope.
# bone marrow cells = assay: [3H]-thymidine incorporation assay, bone marrow cell proliferation; assay type: cell-based, C57BL/6J mice; details: 0.1, 0.05 and 0.001 μM
# Protocol: Bone marrow cells were obtained from the femur of C57BL/6J mice. Cells were disaggregated by passing through a 25 G needle.
# (§1) [^3H]-tymidine incorporation assay was used to evaluate cell growth. 1.5×10^4/ml B-16-F10 melanoma or 3×10^5/ml bone marrow cells were cultured in RPMI medium containing 10% FBS in 96 well microtiter plates. These cultures were incubated in the presence of MCM in a concentration of 50%. Since MCM was prepared in PBS, cultures containing tumor or bone marrow cells suspended in 50% PBS served as controls. During the last 18 hours of incubation, each well was pulsed with 1 μCi [^3H]-thymnidine. The cells were harvested and the [^3H]-thymnidine uptake was determined in an LKB liquid scintillation counter (LKB, Piscataway, N.J., USA).
# (§2) Results were expressed as % of cell proliferation inhibition or stimulation, calculated according to the following formula: [formula]
# where A represents the cell count of sample and B represents the cell count of the control. According to this calculation control values are 0% of inhibition or stimulation.
# To eliminate adenosine from MCM preparations, adenosine deaminase (ADA) (Sigma, Chemical Co. St. Louis, Mo., USA) was added to the MCM for 1 hour. […]
# (§3) In this set of experiments, the question whether the effect of MCM+ADA on tumor or normal cells was mediated through A3AR was examined. […] [^3H]-thymidine uptake was determined as described above.
# B-16-F10 melanoma cells = assay: [3H]-thymidine incorporation assay, tumor cell proliferation; assay type: cell-based, murine; details: B16-F10 cells; 0.1, 0.05 and 0.001 μM
# Protocol: The B-16-F10 murine melanoma cell line was used in the in vitro and in vivo experiments. Cells were maintained in RPMI medium containing 10% FBS, penicillin and streptomycin. They were transferred twice weekly to a freshly prepared medium.
# as §1, §2
# where A represents the cell count of sample and B represents the cell count of the control. According to this calculation control values are 0% of inhibition or stimulation. […]
# as §3
SMILES,chemoprotective effect [1],inhibition of tumor growth (B16-F10 melanoma cells),effect of MRS-1220 by itself on proliferation (bone marrow cells),effect of MRS-1220 by itself on proliferation (B-16-F10 melanoma cells)
"Nc1ncnc2c1ncn2[C@@H]1O[C@H](CO)[C@@H](O)[C@H]1O [Adenosine, adenosine]",failed to inhibit tumor growth or act as a chemoprotective agent,failed to inhibit tumor growth,–,–
"O=C(Cc1ccccc1)Nc1nc2ccc(Cl)cc2c2nc(-c3ccco3)nn12 [MRS-1220, 9-chloro-2-(2-furanyl)-5-[(phenylacetyl)amino] [1,2,4,]-triazolo[1,5-c] quinazoline]",–,–,no effect,no effect
